{
  "source": "patent US11932657B2",
  "about": "“Heterocyclic compound” (priority 2018, dated 2024)",
  "data": [
    {"tested_on": "immortalized megakaryocyte line (SeV2-MKCL)", "assay": "Platelet production: static culturing of immortalized megakaryocyte line", "assay_type": "cell-based", "conditions": "compound final concentration 0.1 μM, static culturing 6 to 7 days, control (DMSO) set to 1; platelets = CD41, CD42b and CD42a-positive cells", "description": "Test Example 2 (Platelet Production: Static Culturing)\nThe immortalized megakaryocyte line (SeV2-MKCL) obtained according to the method described in WO 2016/204256 was washed twice with D-PBS(−) and then cultured in medium not containing doxycycline to terminate forced expression. Culturing was implemented by seeding the cells at 1 mL/well in a 24-well plate (#662160 (Greiner Rio-One)) at a seeding density of 1×10^5 cells/mL followed by static culturing in the medium indicated below.\nThe medium was obtained by adding the following components to IMDM serving as the basal medium (concentrations indicate final concentrations).\nCulturing was implemented under conditions of 37° C. and 5% CO2. At the same time, the compound of the present invention (final concentration 0.1 μM) or DMSO (control) was added and cultured for 6 to 7 days. Thereafter, the number of platelets (CD41, CD42b, and CD42a-positive cells) was measured. The measurement method was as shown below. The same procedure was performed with the control.\nA portion of the culture supernatant was harvested 6 to 7 days after culturing to terminate gene expression, and suspended with the following antibodies to stain them. eFluor 450-labeled anti-CD42a antibody (#48-0428-42 (eBioscience)) PE-labeled anti-CD42b antibody (#303906 (BioLegend)) APC-labeled anti-CD41 antibody (#303710 (BioLegend)) The number of platelets was counted using FACSVerse manufactured by BD 30 minutes after the stain reaction. In the measurement of the number of platelets, the number of cells was corrected using Flow-count beads (#7547053 (Beckman Coulter)).\nThe number of platelets produced from one megakaryocyte cell was calculated based on the number of platelets in the sample obtained by the FACS measurement, and the result was defined as platelet production efficiency (PLT/MK) and used for evaluation of drug efficacy of the compound. In addition, the specific activity at the time when the platelet production efficiency of the control was set to 1 was indicated as fold increase.", "values": [
      {"smiles": "CC1(C)COc2nc3c(NCCc4ccc(O)c(-c5ccc(O)cc5)c4)nc(-c4cncc(F)c4)nc3n21", "note": "[Example 19, 4-[2-[[2-(5-fluoropyridin-3-yl)-8,8-dimethyl-7H-purino[8,9-b][1,3]oxazol-4-yl]amino]ethyl]-2-(4-hydroxyphenyl)phenol]", "Static (vs veh): fold increase of platelet production efficiency (PLT/MK)": 2.8},
      {"smiles": "Cc1cc(CCNc2nc(-c3cncc(F)c3)nc3c2nc2n3C(C)(C)CO2)ccc1O", "note": "[Example 51]", "Static (vs veh): fold increase of platelet production efficiency (PLT/MK)": 2.6},
      {"smiles": "CC1(C)COc2nc3c(NCCc4ccc(O)c(-c5cncc(C#N)c5)c4)nc(-c4cncc(F)c4)nc3n21", "note": "[Example 75]", "Static (vs veh): fold increase of platelet production efficiency (PLT/MK)": 2.7},
      {"smiles": "CC1(C)COc2nc3c(NCCc4ccc(O)cc4)nc(-c4cncc(F)c4)nc3n21", "note": "[Example 80]", "Static (vs veh): fold increase of platelet production efficiency (PLT/MK)": 3.4},
      {"smiles": "CC1(C)COc2nc3c(NCCc4c[nH]c5ccccc45)nc(-c4cncc(F)c4)nc3n21", "note": "[Example 82]", "Static (vs veh): fold increase of platelet production efficiency (PLT/MK)": 5.0},
      {"smiles": "Cc1cncc(-c2nc(NCCc3c[nH]c4ccccc34)c3nc4n(c3n2)C(C)(C)CO4)c1", "note": "[Example 83]", "Static (vs veh): fold increase of platelet production efficiency (PLT/MK)": 5.8},
      {"smiles": "Fc1cncc(-c2nc(NCCc3c[nH]c4ccccc34)c3nc4n(c3n2)CCCO4)c1", "note": "[Example 84]", "Static (vs veh): fold increase of platelet production efficiency (PLT/MK)": 13},
      {"smiles": "CC1(C)COc2nc3c(NCCc4c[nH]c5ccccc45)nc(-c4ccc(F)c(F)c4)nc3n21", "note": "[Example 88]", "Static (vs veh): fold increase of platelet production efficiency (PLT/MK)": 3.1},
      {"smiles": "CC1(C)CCOc2nc3c(NCCc4c[nH]c5ccccc45)nc(-c4cncc(F)c4)nc3n21", "note": "[Example 89]", "Static (vs veh): fold increase of platelet production efficiency (PLT/MK)": 5.0},
      {"smiles": "CC1(C)CCOc2nc3c(NCCc4ccc(O)cc4)nc(-c4cncc(F)c4)nc3n21", "note": "[Example 90]", "Static (vs veh): fold increase of platelet production efficiency (PLT/MK)": 2.6},
      {"smiles": "CC1(C)CSc2nc3c(NCCc4c[nH]c5ccccc45)nc(-c4cncc(F)c4)nc3n21", "note": "[Example 95]", "Static (vs veh): fold increase of platelet production efficiency (PLT/MK)": 2.4},
      {"smiles": "CC1(C)COc2nc3c(NCCc4c[nH]c5ccccc45)nc(-c4ccnc(F)c4)nc3n21", "note": "[Example 100]", "Static (vs veh): fold increase of platelet production efficiency (PLT/MK)": 3.5},
      {"smiles": "C[C@@H]1CSc2nc3c(NCCc4c[nH]c5ccccc45)nc(-c4cncc(F)c4)nc3n21", "note": "[Example 102]", "Static (vs veh): fold increase of platelet production efficiency (PLT/MK)": 4.5},
      {"smiles": "CC1(C)COc2nc3c(NCCc4ccc5[nH]ccc5c4)nc(-c4cncc(F)c4)nc3n21", "note": "[Example 103]", "Static (vs veh): fold increase of platelet production efficiency (PLT/MK)": 3.1},
      {"smiles": "Cc1[nH]c2ccccc2c1CCNc1nc(-c2cncc(F)c2)nc2c1nc1n2C(C)(C)CO1", "note": "[Example 104]", "Static (vs veh): fold increase of platelet production efficiency (PLT/MK)": 4.6},
      {"smiles": "Fc1cncc(-c2nc(NCCc3c[nH]c4ccccc34)c3nc4n(c3n2)CCS4)c1", "note": "[Example 105]", "Static (vs veh): fold increase of platelet production efficiency (PLT/MK)": 8.2},
      {"smiles": "C[C@H]1CSc2nc3c(NCCc4c[nH]c5ccccc45)nc(-c4cncc(F)c4)nc3n21", "note": "[Example 106]", "Static (vs veh): fold increase of platelet production efficiency (PLT/MK)": 6.9},
      {"smiles": "Fc1cncc(-c2nc(NCCc3c[nH]c4ccccc34)c3nc4n(c3n2)CCCCS4)c1", "note": "[Example 107]", "Static (vs veh): fold increase of platelet production efficiency (PLT/MK)": 7.9},
      {"smiles": "CC1(C)COc2nc3c(NCCc4c[nH]c5ccccc45)nc(-c4ccccc4F)nc3n21", "note": "[Example 113]", "Static (vs veh): fold increase of platelet production efficiency (PLT/MK)": 2.5},
      {"smiles": "CC1(C)COc2nc3c(NCCc4c[nH]c5ccccc45)nc(-c4ccc(F)cc4)nc3n21", "note": "[Example 114]", "Static (vs veh): fold increase of platelet production efficiency (PLT/MK)": 2.2},
      {"smiles": "CC1(C)COc2nc3c(NCCc4c[nH]c5ccccc45)nc(-c4ccccc4)nc3n21", "note": "[Example 116]", "Static (vs veh): fold increase of platelet production efficiency (PLT/MK)": 2.5}
    ]}
  ]
}
